The values that follow come from patent US9921406B2, “Targeted dual-axes confocal imaging apparatus with vertical scanning capabilities” (THE REGENTS OF THE UNIVERSITY OF MICHIGAN, priority 2009, dated 2018).

Entries after “also recorded” stand apart in the source; their conditions may differ.

The target in one assay is T1, CXCR7 (Homo sapiens, UniProt P25106).
T1 construct: expressed in transfected cells; host or cells: reporter cells stably expressing the CXCR7/β-arrestin 2 PCA
Briefly: CXCR7/β-arrestin 2 firefly luciferase complementation assay for CXCR7 activation. It is filed as cell-based. From the text: Binding of synthetic or natural ligands to 7-transmembrane receptors activates the receptor, resulting in receptor activation and recruitment of β-arrestin, a cytosolic adapter protein. The protein interaction between CXCR7 and β-arrestin 2 has been used to develop a protein fragment complementation assay for detecting activation of CXCR7. […] Ligand-dependent interaction of CXCR7 and β-arrestin 2 also brings together NLuc and CLuc fragments, which reconstitutes active firefly luciferase.
Ligands for CXCR7 activate the receptor, causing recruitment of β-arrestin. To determine to what extent the engineered knottin interacts with CXCR7, firefly luciferase complementation for CXCR7 activation was used as a reporter for binding of the peptide to the receptor. CXCR7/β-arrestin reporter cells were incubated with increasing concentrations of CXCR7-targeted knottin for 2 hours and then luciferase activity was quantified in living cells.

The target of a further assay is T2, CXCR4 (Homo sapiens, UniProt P61073).
T2 construct: expressed in transfected cells
Description: Luciferase complementation for recruitment of β-arrestin to CXCR4. In kind it is cell-based.

The subject of assay [1] is adenomas (dysplastic polyps) in the rectum. Description: In vivo fluorescence endoscopy of topically applied peptide in CPC;APC mouse model of colon cancer. The conditions noted are these: FITC-labeled peptide 10 μM, 1 ml topical, ~10 minute dwell, PBS rinse. From the text: This small animal endoscope (Karl Storz Veterinary Endoscopy, Goleta, Calif.) consists of a 9.5 Fr (3 mm) diameter rigid Hopkins II 0 deg telescope with a 11.5 cm working length and a 3 Fr (1 mm) diameter instrument channel for performing tissue biopsy. Fluorescence excitation is produced with a 450 to 475 nm passband filter that can be manually switched into the optical path of a 175 W Nova Xenon light source, and is delivered to the endoscope via a 3 mm diameter fluid light cable with 250 cm length. Fluorescence images are collected with 510 nm barrier filter to block the excitation light, and are detected with a 3-chip color camera with an integrated parfocal zoom lens. Real time video can be recorded via firewire connected to a personal computer.
The rectum of the mouse was first cleaned of stool and debris by performing tap water lavage, and then the distal end of the small animal endoscope was lubricated and inserted into the rectum of the mouse. Once adenomas were identified on white light, shown in FIG. 25A, a 1 ml solution of FITC-labeled peptide “VRPMPLQ” at a concentration of 10 μM was applied through the instrument channel with a syringe, and allowed to dwell for ˜10 minute, followed by gentle rinsing with PBS. […] The rectum was then rinsed vigorously with PBS. Complete removal of the peptide from the rectal mucosa was observed on fluorescence. […]

The next assay deals with colonic adenoma. The conditions noted are these: topical, cited from earlier work.

T1 sequence (P25106 whole entry, species assumed): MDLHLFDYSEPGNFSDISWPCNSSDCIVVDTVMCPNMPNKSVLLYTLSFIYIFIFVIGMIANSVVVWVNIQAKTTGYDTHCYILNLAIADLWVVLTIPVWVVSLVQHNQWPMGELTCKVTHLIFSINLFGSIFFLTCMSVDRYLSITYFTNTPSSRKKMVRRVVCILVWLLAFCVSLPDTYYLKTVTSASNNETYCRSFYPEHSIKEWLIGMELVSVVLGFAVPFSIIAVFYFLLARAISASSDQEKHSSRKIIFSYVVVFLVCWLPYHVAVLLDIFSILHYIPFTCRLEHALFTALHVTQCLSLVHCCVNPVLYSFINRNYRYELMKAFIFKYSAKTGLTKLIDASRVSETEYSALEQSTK
T1 sequence (P32121 whole entry partner, species assumed): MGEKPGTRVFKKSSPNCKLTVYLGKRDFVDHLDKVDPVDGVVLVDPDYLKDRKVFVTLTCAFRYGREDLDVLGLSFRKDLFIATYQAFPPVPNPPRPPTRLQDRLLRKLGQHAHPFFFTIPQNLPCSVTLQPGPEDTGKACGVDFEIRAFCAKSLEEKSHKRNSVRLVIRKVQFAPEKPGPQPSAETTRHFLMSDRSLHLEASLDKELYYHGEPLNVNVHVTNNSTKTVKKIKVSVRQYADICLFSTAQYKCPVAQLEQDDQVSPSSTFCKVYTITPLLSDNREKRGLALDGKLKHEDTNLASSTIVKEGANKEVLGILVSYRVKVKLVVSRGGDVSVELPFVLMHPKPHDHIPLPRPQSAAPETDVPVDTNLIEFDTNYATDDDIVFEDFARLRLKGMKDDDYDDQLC
T2 sequence (P61073 whole entry, species assumed): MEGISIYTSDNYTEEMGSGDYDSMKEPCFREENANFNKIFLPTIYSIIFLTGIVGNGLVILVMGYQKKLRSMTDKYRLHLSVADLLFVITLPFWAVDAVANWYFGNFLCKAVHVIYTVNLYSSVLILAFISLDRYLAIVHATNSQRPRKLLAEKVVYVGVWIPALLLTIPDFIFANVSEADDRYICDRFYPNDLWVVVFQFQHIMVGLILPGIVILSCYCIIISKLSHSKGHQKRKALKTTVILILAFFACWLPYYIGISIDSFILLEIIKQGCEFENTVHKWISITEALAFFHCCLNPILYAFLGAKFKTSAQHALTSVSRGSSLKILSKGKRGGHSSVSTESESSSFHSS

For “GGCKPVSLSYRAPARFCKQDSDCLAGCVCGPNGFCGSA [CXCR7-targeted knottin]”, in the assay with CXCR7 (from luciferase complementation for both receptors), the “selectivity CXCR7 versus CXCR4” value was “selectively interacts with CXCR7 and not CXCR4”. For the same substance, the “activation of CXCR7 (bioluminescence)” value in the assay with CXCR7 (reporter cells, living cells, knottin incubated 2 hours with increasing concentrations) is reported as “increased bioluminescence; also recorded: dose-dependent activation of CXCR7”. Besides, the “activation of CXCR4 (recruitment of β-arrestin)” value with CXCR4 is reported as “did not activate CXCR4”.

For the substance “QLMRPPV [FITC-labeled scrambled (control) peptide, reference compound]”, the “peptide binding to adenomas (fluorescence image)” value in assay [1] was “significantly less fluorescence intensity; also recorded: reduced binding”.

In the case of “VRPMPLQ [7mer peptide from phage display, conjugated to fluorescein using a hexanoic acid linker to the N-terminus]”, in assay [1], the “peptide binding to adenomas (fluorescence image)” value is reported as “preferential peptide binding to the adenomas; also recorded: affinity binding”. In addition, in the assay on colonic adenoma (50 μm depth, FIG. 23B), the “peptide binding seen in fluorescence image, adenoma versus normal mucosa” value was “significant peptide binding to colonocytes surrounding dysplastic crypts (adenoma)”. In the assay on colonic adenoma (imaged at 50 μm depth, n=10 adenomas and adjacent normal mucosa), the “average contrast ratio (adenoma:normal fluorescence intensity)” value is given as 21±6.
